The results in this text go back to patent publication US9878054B2, “Polypeptide and lipophilic moiety conjugate compositions, formulations, and uses related thereto” (Tufts Medical Center, Inc., priority 2012, dated 2018).

For series [1], the system named is human platelets (Ristocetin). Nature of the series: Human platelet aggregation, ristocetin. The settings on record: 1 mg/ml Ristocetin. The series is classed as cell-based. The protocol: A, Depiction of the mechanism of action of the cell-penetrating PZ-128 pepducin compound targeting the third intracellular loop (red) of PAR1. B, The NMR structure of PZ-128 was determined by simulated annealing methods using 210 distance restraints and included restraints to the proximal 3 hydrocarbons of the lipid. […] D, PZ-128 inhibits PAR1-dependent platelet aggregation. Gel filtered human platelets were treated with various concentrations of PZ-128 and then challenged with the PAR1 agonist SFLLRN (2.5 μM), 20 μM ADP, 200 μM AYPGKF or 1 mg/ml Ristocetin. E, Human platelets were treated with 3 μM PZ-128, 3 μM RWJ-56110, or 5% dextrose vehicle before the addition of various concentrations of thrombin (n=3-5).
PZ-128 also markedly right-shifted thrombin-induced aggregation by 5-fold. By comparison, the small molecule RWJ-56110 which antagonizes PAR1 at the extracellular ligand-binding site gave a 2-fold right shift in the thrombin activation curve of human platelets.
Whole blood from healthy donors was collected into a 30 ml syringe containing sodium citrate (0.4% vol/vol final). Platelets were isolated from platelet rich plasma (PRP) using Sepharose 2B columns in modified PIPES buffer.

Series [2] relates to PAR1. Nature of the series: Guinea pig ex vivo platelet aggregation to SFLLRN after iv infusion. It counts as in vivo. The note with it: 3 and 6 mg/kg, 10 min iv infusion, 15 min time point, 2.5 μM SFLLRN.
Procedure: PZ-128 or 5% dextrose USP vehicle was infused for 10 min into the jugular vein of male and female guinea pigs (0.55-0.65 kg). A-C, At the 15 min time point, whole blood was collected by cardiac puncture in 100 μg/ml PPACK/4% Na-citrate (final) anti-coagulant and platelet rich plasma (PRP) prepared and aggregation measurements were performed. […] B-C, PRP obtained at the 15 min time point after infusion with vehicle, 3 mg/kg PZ-128 or 6 mg/kg PZ128 was challenged with 2.5 μM SFLLRN, 20 μM ADP or 20 μM thromboxane mimetic, U46119. Individual data points (n=3) are overlayed on bar graphs depicting mean±SD. […] Data in B-D were analyzed by the non-parametric Kruskal-Wallis test with the Dunn's multiple pairwise comparison post-test.
PZ-128 micelles were delivered by internal jugular vein infusions over 10 min.
Guinea pigs weighing 600-650 g were used for platelet aggregation experiments. PZ-128 micelles (3 or 6 mg/kg) were administered by a 10 min intravenous infusion, and blood was collected by cardiac puncture into sodium citrate (0.4% vol/vol final) 5 minutes after cessation of the infusion. PRP was prepared and PPACK added to a final concentration of 100 μg/ml. PRP was calcified with 2.5 mM CaCl2 and aggregation was performed as described above.
Series [3] deals with guinea pig carotid artery thrombosis. Put plainly: Guinea pig carotid artery FeCl3 injury arterial thrombosis model. It counts as in vivo. The procedure: A carotid artery FeCl3 injury model was used in guinea pigs to assess the anti-thrombotic efficacy of PZ-128 micelles within 15 min of initiation of drug administration. FeCl3 denudes the artery and exposes type I collagen and other subendothelial matrix proteins to initiate platelet-dependent thrombosis. Guinea pigs received 10 min intravenous infusions of PZ-128 micelles, 5 min prior to carotid artery injury. […] Mean occlusion times increased by 4-fold to 40 min at doses above 0.05 mg/kg PZ-128.
Male Hartley guinea pigs (150˜220 g) were purchased from Charles River Laboratories. A 0.61 mm-diameter catheter was inserted into the left jugular vein of anesthetized animals for administration of infusions of 5% USP dextrose vehicle or PZ-128 micelles. A 0.5 V-Doppler probe (Transonic Systems, Ithaca, N.Y.) was placed around the right carotid artery to record blood flow. A range of doses of PZ-128 micelles from 0.05 to 1.6 mg/kg in 0.9 ml volumes were delivered at an injection rate of 0.09 ml/min by a Harvard syringe pump. Five minutes after the infusion ended, arterial thrombosis was induced by placing a 5×5 mm^2 piece of filter paper soaked in freshly made 20% FeCl3 solution on the right carotid artery 5 mm distal to the probe for 20 minutes. […] To examine possible synergistic effects of PZ-128 micelles and P2Y12-ADP receptor inhibition, 1 mg/kg clopidogrel was administered by oral gavage 4 hours prior to FeCl3 injury. In these synergy experiments, the maximum endpoint was set at 90 minutes for occlusion time.

The test system of series [4] is baboon arterial thrombosis (platelet deposition). Put plainly: Baboon arterial-venous shunt Dacron graft thrombosis. The series is classed as in vivo, baboon (Papio anubis). The protocol: 10-14 kg baboons were administered 3 mg/kg or 6 mg/kg PZ-128 by a 45 min iv infusion versus 5% dextrose vehicle (n=2-6). A, Net platelet accumulation was measured during the first 60 minutes of thrombus growth on a femoral arterio-venous Dacron graft (4 mm ID) inserted between silicone rubber tubing segments comprising a high-flow shunt. Blood flow was maintained at 100 ml/min by distal clamping the shunt. Autologous platelets were radiolabeled with indium-111 (1 mCi), and reinjected into the animals before thrombosis experiments. B, Deposition of platelets (mean±SD) was quantified in the head plus tail regions of the thrombus by 111Indium-labeled platelet imaging with 5-minute data acquisition periods starting at 60 min after initiation of the infusion. Statistical significance was determined using a variance stabilizing LN (natural log) transformation and a repeated measures mixed effects model with an autoregressive covariance structure. Subjects (individual baboons) were included in the model as a random effect. P=0.606 for 3 mg/kg vs vehicle and P=0.0028 for 6 mg/kg vs vehicle.
Baboon arterial thrombosis experiments were conducted to determine whether the PZ-128 micelles had the potential to inhibit arterial thrombosis in primates. An arterial-venous shunt equipped with a Dacron vascular graft with an internal lumen diameter of 4 mm at a high flow rate of 100 ml/min was used. Thrombogenesis was assessed by measuring platelet content of the head and tail regions of the developing thrombus (FIG. 4A) and quantified by ^111Indium-labeled platelet imaging over 60 min. PZ-128 micelles at a dose of 1 mg/kg had no effect on platelet-thrombus deposition in the baboon.
Non-terminal thrombosis and platelet aggregation studies were performed on 12 healthy male baboons (Papio anubis) weighing 9-12 kg at the Oregon National Primate Research Center (ONPRC). […] Platelet counts and hematocrit were measured immediately. […]

In series [5] the test system is human whole blood (red blood cell lysis). Nature of the series: Hemolysis of human whole blood. The note with it: up to 3.3 mg/mL in 5% dextrose, blood mixed 2:1; 40 min at 37° C. The series is classed as cell-based. The protocol: Fresh human whole blood (anticoagulated with 10 U heparin/mL) was mixed 2:1 with the various indicated dilutions of micelles of PZ-128 in 5% dextrose, incubated for 40 min at 37° C., and red blood cell lysis quantified by hemoglobin (Hb) release into the supernatant.
The PZ-128 micelle particles were solubilized in 5% dextrose/water at 10 mg/mL concentration and serially diluted with additional 5% dextrose/water to make stock solutions of 0.75, 1.5, 2.25, 3.0, 3.3 and 4.0 mg/mL PZ-128 in 5% dextrose water. Fresh human whole blood (anticoagulated with 10 U heparin/mL) was mixed 2:1 with the various dilutions of PZ-128 in 5% dextrose, incubated for 40 min at 37° C., and red blood cell lysis quantified by hemoglobin (Hb) release into the supernatant. […] The final pH of the PZ-128 micelles in 5% dextrose/water ranged from 6.75 to 7.13 at 1.25-10 mg/mL at room temperature.

Where a SMILES comes first, the peptide text is derived from it. The star is where a group is joined. Palmitoyl = CCCCCCCCCCCCCCCC(=O)*

In the case of `CCCCCCCCCCCCCCCC(=O)N[C@@H](CCCCN)C(=O)N[C@@H](CCCCN)C(=O)N[C@@H](CO)C(=O)N[C@@H](CCCNC(=N)N)C(=O)N[C@@H](C)C(=O)N[C@@H](CC(C)C)C(=O)N[C@@H](Cc1ccccc1)C(N)=O` [PZ-128, palmitate-KKSRALF-NH2] (Palmitoyl-KKSRALF-NH2), the “Inhibitory activity against ristocetin aggregation” value in series [1] is “no inhibitory activity”. In addition, the “Inhibition of ex vivo platelet aggregation to SFLLRN” value in series [2] was “significant, dose-dependent inhibition”. Further, the “EC50, protection against arterial occlusion” value in series [3] (10 min iv infusion 5 min prior to FeCl3 carotid injury) is 0.075 mg/kg. Also, in series [3] (doses above 0.05 mg/kg), the “Increase of mean occlusion time” value was found to be 4 fold and the Mean occlusion time was 40 min. In addition, the “Protection against arterial occlusion when used alone” value in series [3] (sub-therapeutic dose alone (PZ-128 0.05 mg/kg; clopidogrel 1 mg/kg PO)) is “non-significant protection”. The “Effect on platelet-thrombus deposition” value in series [4] (1 mg/kg) was “no effect”. The “Effect against platelet arterial thrombus formation vs vehicle” value in series [4] (3 mg/kg iv infusion, P=0.606) is given as “not significant”. The “Effect against platelet arterial thrombus formation vs vehicle” value in series [4] (6 mg/kg iv infusion, P=0.0028) is “significant protective effect”. Further, the “Hemolysis of human whole blood (Hb release)” value in series [5] was “no significant hemolysis”.
